Data on nine molecules can be found in patent US6573244B1 (priority 1999, dated 2003).

Ends that are not written are not given here.

One data set addresses BttxB (Clostridium botulinum, UniProt P10844). Description: biochemical.
For data set [1] the following is noted: rat, in vivo, ip.
The next data set concerns Bttxs. Conditions: cited from earlier work.
In data set [2] the target is T1, Botulinum toxin B, P10844.
T1 chain: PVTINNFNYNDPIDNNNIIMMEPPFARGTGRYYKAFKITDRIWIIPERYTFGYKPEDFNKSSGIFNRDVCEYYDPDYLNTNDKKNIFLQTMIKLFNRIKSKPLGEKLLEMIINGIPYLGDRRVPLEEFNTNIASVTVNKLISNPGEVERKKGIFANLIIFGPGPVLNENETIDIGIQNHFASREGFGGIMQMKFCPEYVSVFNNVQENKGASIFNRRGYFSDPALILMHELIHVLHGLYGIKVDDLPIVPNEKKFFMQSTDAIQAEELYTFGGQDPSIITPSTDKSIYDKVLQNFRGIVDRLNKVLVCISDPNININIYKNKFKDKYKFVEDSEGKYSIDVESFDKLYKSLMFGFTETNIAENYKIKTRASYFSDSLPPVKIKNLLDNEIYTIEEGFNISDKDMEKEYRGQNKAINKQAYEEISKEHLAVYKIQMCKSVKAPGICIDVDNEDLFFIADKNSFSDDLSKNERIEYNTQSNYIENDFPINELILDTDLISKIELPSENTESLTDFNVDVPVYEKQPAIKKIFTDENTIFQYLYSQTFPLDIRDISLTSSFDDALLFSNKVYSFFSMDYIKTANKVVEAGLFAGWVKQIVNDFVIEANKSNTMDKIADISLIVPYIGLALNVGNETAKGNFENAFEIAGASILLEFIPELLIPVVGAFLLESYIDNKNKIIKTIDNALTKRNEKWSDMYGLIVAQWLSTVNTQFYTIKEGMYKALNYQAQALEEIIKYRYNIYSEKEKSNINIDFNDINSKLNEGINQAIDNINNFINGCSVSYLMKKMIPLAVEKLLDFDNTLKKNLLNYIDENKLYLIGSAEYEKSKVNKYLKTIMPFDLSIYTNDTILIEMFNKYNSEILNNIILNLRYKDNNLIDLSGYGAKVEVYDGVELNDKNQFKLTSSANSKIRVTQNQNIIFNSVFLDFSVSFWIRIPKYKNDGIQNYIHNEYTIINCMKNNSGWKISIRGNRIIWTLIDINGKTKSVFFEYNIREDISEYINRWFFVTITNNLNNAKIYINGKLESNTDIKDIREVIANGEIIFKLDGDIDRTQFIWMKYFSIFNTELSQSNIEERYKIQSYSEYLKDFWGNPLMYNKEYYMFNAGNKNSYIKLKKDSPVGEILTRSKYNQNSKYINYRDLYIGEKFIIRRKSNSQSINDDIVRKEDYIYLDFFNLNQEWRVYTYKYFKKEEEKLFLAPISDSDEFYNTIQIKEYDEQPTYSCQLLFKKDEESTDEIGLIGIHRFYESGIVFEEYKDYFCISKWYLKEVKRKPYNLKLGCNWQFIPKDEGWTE
The data set can be described thus: cell-based or functional assay.

For orientation: IC50 means the concentration that inhibits the measured activity by half. Read a high IC50 as weaker potency in that assay. Consider `CC(C)C[C@H](NC(=O)CNC(=O)[C@H](C)NC(=O)[C@H](CCCNC(=N)N)NC(=O)[C@H](CO)NC(=O)[C@H](CO)NC(=O)[C@H](CCCNC(=N)N)NC(=O)[C@@H](NC(=O)[C@H](CCCCN)NC(=O)[C@H](C)NC(=O)[C@H](CCCCN)NC(=O)[C@H](C)NC(=O)[C@H](CCCNC(=N)N)NC(=O)[C@@H](NC(=O)[C@H](CCCCN)NC(=O)CNC(=O)CNC(=O)[C@H](CCC(N)=O)NC(=O)[C@H](CCCCN)NC(=O)CNC(=O)[C@H](CCCNC(=N)N)NC(=O)CNC(=O)[C@H](C)N)C(C)C)[C@@H](C)O)C(=O)N[C@@H](CCC(N)=O)C(=O)N[C@@H](Cc1ccccc1)C(=O)N1CCC[C@H]1C(=O)N[C@H](C(=O)NCC(=O)N[C@@H](CCCNC(=N)N)C(=O)N[C@H](C(=O)N[C@@H](Cc1c[nH]cn1)C(=O)N[C@@H](CCCNC(=N)N)C(=O)N[C@@H](CC(C)C)C(=O)N[C@@H](CC(C)C)C(=O)N[C@@H](CCCNC(=N)N)C(=O)N[C@@H](CCCCN)C(=O)NCC(=O)N[C@@H](CC(N)=O)C(=O)N[C@@H](Cc1ccc(O)cc1)C(=O)O)C(C)C)C(C)C` [Buforin I], for which, at BttxB, 1 µM corresponded to half-maximal inhibition (IC50); the “mode of inhibition of BttxB activity” value was “dose-dependently and competitively inhibits”; the “substrate of BttxB or not” value is listed as “not to be a substrate”. In addition, in data set [1], the “plateau (time to maximal-plateau level)” value is ≤ 40 min; the “time the maximal-plateau level was maintained” value is listed as “up to 4 h”; the “time to reach ½ the absorbed maximal value” is 7.7 min; the “uptake into the blood stream, in words” value is reported as “rapid uptake”.

As for `C[C@H](CS)C(=O)N1CCC[C@H]1C(=O)O` [captopril], the “inhibition of Bttxs, in words” value with Bttxs is “not effective inhibitors”.

With `CC(C)C[C@H](NP(=O)(O)O[C@@H]1O[C@@H](C)[C@H](O)[C@@H](O)[C@H]1O)C(=O)N[C@@H](Cc1c[nH]c2ccccc12)C(=O)O` [phosphoramidon], the “inhibition of Bttxs, in words” value in the data set with Bttxs is on record as “not effective inhibitors”.

In the case of “AGRGKQGGKVRAKAKTRSSRAGLQFPVGRVHRLLRK [Peptide 36]”, the “substrate of BttxB or not” value on BttxB is “not substrates”.

For ELDDRADALQ [Peptide V2], in the data set with Bttxs, the “inhibition of Bttxs, in words” value is recorded as “found to inhibit Bttx activity”.

On to RPKPQQFFGLM [Substance P], for which, on BttxB, the “inhibition of BttxB, in words” value is given as “weak inhibitor” and the “substrate of BttxB or not” value was “not a substrate”.

With TRSRAKGLQFPGLLVHRLLRKGNY [Peptide 05P], the IC50 at BttxB was < 200 µM.

Consider TRSSRAGLQFPVGRVHRLLRKGNY [Peptide 24], for which the “substrate of BttxB or not” value on BttxB is given as “not substrates”.

B1: Peptide 05P (peptide)
peptide: TRSRAKGLQFPGLLVHRLLRKGNY
modifications: not checked
Regarding B1, in data set [2], the inhibition of botulinum B proteolytic activity was < 200 µM and the potency of inhibition relative to Substance P is < 4 fold.
